The NIST ThermoML archive (doi:10.1016/j.tca.2006.08.007)

Assay: excess molar enthalpy (molar enthalpy of mixing); xn = mol fraction of the nth substance listed
Conditions: 101 kPa, Liquid, Isoperibol calorimetry

CCCCCO [pentan-1-ol] + CC#N
Conditions | excess molar enthalpy [kcal/mol]
288.15 K, x1 = 0.0461 | 0.107
288.15 K, x1 = 0.0922 | 0.1965
288.15 K, x1 = 0.1379 | 0.2691
288.15 K, x1 = 0.1833 | 0.3207
288.15 K, x1 = 0.2279 | 0.364
288.15 K, x1 = 0.2717 | 0.3903
288.15 K, x1 = 0.3144 | 0.4302
288.15 K, x1 = 0.356 | 0.446
288.15 K, x1 = 0.3963 | 0.4555
288.15 K, x1 = 0.4494 | 0.4615
288.15 K, x1 = 0.4818 | 0.4632
288.15 K, x1 = 0.5174 | 0.462
288.15 K, x1 = 0.5567 | 0.4548
288.15 K, x1 = 0.6002 | 0.4412
288.15 K, x1 = 0.6486 | 0.4187
288.15 K, x1 = 0.7027 | 0.3879
288.15 K, x1 = 0.7635 | 0.3396
288.15 K, x1 = 0.8322 | 0.2734
288.15 K, x1 = 0.9103 | 0.162
298.15 K, x1 = 0.0464 | 0.121
298.15 K, x1 = 0.0927 | 0.2151
298.15 K, x1 = 0.1386 | 0.2909
298.15 K, x1 = 0.1841 | 0.3511
298.15 K, x1 = 0.2289 | 0.3958
298.15 K, x1 = 0.2728 | 0.4293
298.15 K, x1 = 0.3157 | 0.4534
298.15 K, x1 = 0.3574 | 0.4699
298.15 K, x1 = 0.4188 | 0.4794
298.15 K, x1 = 0.4833 | 0.4821
298.15 K, x1 = 0.5189 | 0.4773
298.15 K, x1 = 0.5582 | 0.4663
298.15 K, x1 = 0.6016 | 0.45
298.15 K, x1 = 0.65 | 0.4302
298.15 K, x1 = 0.7039 | 0.3977
298.15 K, x1 = 0.7645 | 0.3468
298.15 K, x1 = 0.833 | 0.2758
298.15 K, x1 = 0.9108 | 0.1673
313.15 K, x1 = 0.0467 | 0.125
313.15 K, x1 = 0.0933 | 0.2268
313.15 K, x1 = 0.1395 | 0.3064
313.15 K, x1 = 0.1852 | 0.3662
313.15 K, x1 = 0.2302 | 0.4109
313.15 K, x1 = 0.2742 | 0.4455
313.15 K, x1 = 0.3172 | 0.4708
313.15 K, x1 = 0.359 | 0.4897
313.15 K, x1 = 0.4229 | 0.5093
313.15 K, x1 = 0.4526 | 0.5127
313.15 K, x1 = 0.485 | 0.5141
313.15 K, x1 = 0.5207 | 0.5076
313.15 K, x1 = 0.5599 | 0.4957
313.15 K, x1 = 0.6033 | 0.4783
313.15 K, x1 = 0.6516 | 0.4548
313.15 K, x1 = 0.7054 | 0.4202
313.15 K, x1 = 0.7658 | 0.3728
313.15 K, x1 = 0.834 | 0.2966
313.15 K, x1 = 0.9114 | 0.185
323.15 K, x1 = 0.0469 | 0.127
323.15 K, x1 = 0.0937 | 0.233
323.15 K, x1 = 0.1401 | 0.3143
323.15 K, x1 = 0.1859 | 0.3721
323.15 K, x1 = 0.231 | 0.4204
323.15 K, x1 = 0.2752 | 0.4579
323.15 K, x1 = 0.3183 | 0.483
323.15 K, x1 = 0.3601 | 0.5098
323.15 K, x1 = 0.4006 | 0.5244
323.15 K, x1 = 0.4538 | 0.5509
323.15 K, x1 = 0.4863 | 0.5562
323.15 K, x1 = 0.5219 | 0.5504
323.15 K, x1 = 0.5611 | 0.5361
323.15 K, x1 = 0.6045 | 0.5122
323.15 K, x1 = 0.6527 | 0.4897
323.15 K, x1 = 0.7064 | 0.4529
323.15 K, x1 = 0.7667 | 0.4101
323.15 K, x1 = 0.8346 | 0.3351
323.15 K, x1 = 0.9118 | 0.2165

CCCCCCO [hexan-1-ol] + CC#N
Conditions | excess molar enthalpy [kcal/mol]
288.15 K, x1 = 0.0402 | 0.105
288.15 K, x1 = 0.0809 | 0.188
288.15 K, x1 = 0.1219 | 0.2555
288.15 K, x1 = 0.1629 | 0.3074
288.15 K, x1 = 0.2038 | 0.3499
288.15 K, x1 = 0.2445 | 0.386
288.15 K, x1 = 0.2846 | 0.4183
288.15 K, x1 = 0.3241 | 0.4434
288.15 K, x1 = 0.3628 | 0.4663
288.15 K, x1 = 0.4145 | 0.4969
288.15 K, x1 = 0.4465 | 0.5029
288.15 K, x1 = 0.4819 | 0.5
288.15 K, x1 = 0.5214 | 0.4912
288.15 K, x1 = 0.5657 | 0.4775
288.15 K, x1 = 0.6156 | 0.4565
288.15 K, x1 = 0.6722 | 0.425
288.15 K, x1 = 0.7368 | 0.3812
288.15 K, x1 = 0.8114 | 0.3083
288.15 K, x1 = 0.898 | 0.191
298.15 K, x1 = 0.0405 | 0.121
298.15 K, x1 = 0.0815 | 0.2278
298.15 K, x1 = 0.1226 | 0.3093
298.15 K, x1 = 0.1639 | 0.3812
298.15 K, x1 = 0.205 | 0.4328
298.15 K, x1 = 0.2457 | 0.4742
298.15 K, x1 = 0.286 | 0.5062
298.15 K, x1 = 0.3257 | 0.5239
298.15 K, x1 = 0.3849 | 0.5428
298.15 K, x1 = 0.4227 | 0.554
298.15 K, x1 = 0.4554 | 0.5566
298.15 K, x1 = 0.4916 | 0.5557
298.15 K, x1 = 0.5321 | 0.5492
298.15 K, x1 = 0.5774 | 0.5359
298.15 K, x1 = 0.6286 | 0.5057
298.15 K, x1 = 0.6866 | 0.4701
298.15 K, x1 = 0.753 | 0.4089
298.15 K, x1 = 0.8295 | 0.309
298.15 K, x1 = 0.9187 | 0.165
298.15 K, x1 = 0.958 | 0.0932
313.15 K, x1 = 0.0408 | 0.132
313.15 K, x1 = 0.0819 | 0.238
313.15 K, x1 = 0.1233 | 0.3184
313.15 K, x1 = 0.1648 | 0.3815
313.15 K, x1 = 0.206 | 0.4398
313.15 K, x1 = 0.247 | 0.4861
313.15 K, x1 = 0.2874 | 0.5151
313.15 K, x1 = 0.3271 | 0.5387
313.15 K, x1 = 0.3888 | 0.5705
313.15 K, x1 = 0.4178 | 0.5782
313.15 K, x1 = 0.4498 | 0.5834
313.15 K, x1 = 0.4853 | 0.5841
313.15 K, x1 = 0.5248 | 0.5772
313.15 K, x1 = 0.569 | 0.5595
313.15 K, x1 = 0.6188 | 0.5311
313.15 K, x1 = 0.6752 | 0.4883
313.15 K, x1 = 0.7395 | 0.435
313.15 K, x1 = 0.8134 | 0.3535
313.15 K, x1 = 0.8993 | 0.2239
323.15 K, x1 = 0.041 | 0.136
323.15 K, x1 = 0.0823 | 0.2452
323.15 K, x1 = 0.1239 | 0.3296
323.15 K, x1 = 0.1655 | 0.4001
323.15 K, x1 = 0.2069 | 0.4541
323.15 K, x1 = 0.2479 | 0.505
323.15 K, x1 = 0.2884 | 0.5461
323.15 K, x1 = 0.3282 | 0.575
323.15 K, x1 = 0.39 | 0.626
323.15 K, x1 = 0.419 | 0.6384
323.15 K, x1 = 0.451 | 0.6417
323.15 K, x1 = 0.4865 | 0.6353
323.15 K, x1 = 0.526 | 0.6231
323.15 K, x1 = 0.5702 | 0.6001
323.15 K, x1 = 0.6199 | 0.5698
323.15 K, x1 = 0.6762 | 0.5206
323.15 K, x1 = 0.7404 | 0.4529
323.15 K, x1 = 0.8142 | 0.3561
323.15 K, x1 = 0.8997 | 0.223
